Data taken from patent US20190000803A1, “CHONDROITIN COMPLEXES FOR TRANSCUTANEOUS ABSORPTION” (Altergon S.A., priority 2012, published 2019).

Columns and labels:
[1] = Dialysis equilibrium study of diclofenac release from diclofenac-chondroitin complexes; format: physicochemical; conditions: 2 KDa cut-off, 100 mL in 2 L water, 25° C.
[2] = Absorption of ketorolac by human skin using the Franz cell; format: in vitro ADME; conditions: compared with absence of the polysaccharide
Method: 10 mg of the following gels was applied to the skin surface: a) tromethamine ketorolac salt gel (per gram of gel: 100 mg of polyethylene glycol, 1 mg of benzyl alcohol, 200 mg of tromethamine ketorolac salt and water q.s. for 1 g, dissolved at 50° C. under vigorous stirring); b) tromethamine ketorolac salt-chondroitin gel (0.535 moles of tromethamine ketorolac salt/mole of disaccharide chondroitin units; per gram of gel: 100 mg of polyethylene glycol, 1 mg of benzyl alcohol, 200 mg of chondroitin MW 62 KDa, 100 mg of tromethamine ketorolac salt and water q.s. for 1 g, dissolved at 50° C. under vigorous stirring).
The quantity of ketorolac present in the skin washing solution (unabsorbed part), in the enzymatic tissue digestate (part absorbed by the skin) and in the receptor fluid (part that crossed the skin structure) was determined quantitatively by HPLC. The tests were conducted on a Waters model 746 (USA) HPLC, equipped with a μ-bondapack C18 column (150×4.6 millimetres). A solution of acetonitrile, deionised water and orthophosphoric acid (45:54.5:0.5 in vol.), with a final pH of 3.5, was used as mobile phase, operating with a flow rate of 1 mL/min. The eluate was monitored at 280 nm. Quantitation was performed by measuring the ratios between the peak area of ketorolac and the peak area of the internal standard, consisting of a naproxen solution with a known titre.

[3] = In vivo transcutaneous absorption of diclofenac gels in nude mice; parameters: species or system Charles River nude mice; conditions: conclusion from tables 8-10
Method: During the study the animals were kept in individual cages, with unrestricted access to food and water.
The animals were euthanised 1, 5 and 10 h after the application, as reported in the trial design in table 7. Immediately after euthanisation the gel application area was washed thoroughly to discriminate between the radioactivity applied and the radioactivity absorbed by the skin. The treated skin areas, liver and blood were recovered from the euthanised animals, and the samples were weighed and frozen immediately after removal. The urine of the animals was recovered from the cages by washing.

[4] = Absorption of diclofenac by human skin using the Franz cell; format: in vitro ADME; conditions: compared with absence of the polysaccharide or presence of chondroitin sulphate
Method: The skin was frozen to −20° C. immediately after removal, and kept at that temperature until the time of use. Before being placed in the Franz cells, the frozen skin was cleaned of subcutaneous fat, so that only the stratum corneum, the epidermis and the dermis were used, and cut to a size suitable for positioning in the Franz cell, with the stratum corneum facing upwards. Before the study began, the cell was maintained at 30° C. for 10 h with continual stirring of the receptor solution consisting of 10 mL of HBSS (Hank's Buffered Saline Solutions). The surface on which the formulation was deposited measured about 3 cm^2. Before application of the gel in the cells, the receptor solution was replaced, taking care to eliminate all air bubbles between skin and solution.
At the indicated times the receptor phase was recovered and the skin surface was washed thoroughly to remove all the unabsorbed gel. The skin was recovered, homogenised and digested for 10 h under stirring at 30° C. with collagenase (5,200 I/g of skin) in 10 mM of phosphate buffer pH 7.4. At the end of the incubation, 0.4 volumes of ethanol were added and the mixture was centrifuged at 10,000 rpm for 20 min. […] The eluate was monitored at 276 nm.

[5] = Topical absorption and distribution of [3H]chondroitin gels in nude mice; format: in vivo, Charles River nude mice
Method: 60 five-month-old Charles River nude mice of both sexes were used as experimental model to evaluate the transcutaneous absorption of chondroitin. The animals were randomised into 12 groups of 5 which, as reported in the study design in table 1, were treated with 50 mg of [^3H]chondroitin gel with different MWs, prepared as described in example 1. During the study the animals were kept in individual cages, with unrestricted access to food and water.
The animals were euthanised 1, 5, 10 and 20 h after the application, as reported in the trial design in table 1. Immediately after euthanisation the gel application area was thoroughly washed until no detectable traces of radioactivity remained in the washing water, in order to discriminate between the radioactivity applied and the radioactivity absorbed by the skin. The treated skin areas, liver and blood were recovered from the euthanised animals, and the samples were weighed and frozen immediately after removal. The urine of the animals was recovered from the cages by washing.
Skin, liver and blood samples (150-200 mg) were solubilised in Soluene […] at ambient temperature. The radioactivity was measured by liquid-phase scintillation on the solubilised samples and the urine.

[6] = Franz cell, human skin; cited from earlier work

## O=C(O)Cc1ccccc1Nc1c(Cl)cccc1Cl [Diclofenac only, 2-(2-[2,6-dichlorophenylamino]phenyl) ethanoic acid]
[1]; 1 h
  % OD275 present in the dialysis medium: 85%
[1]; 2 h
  % OD275 present in the dialysis medium: 94%
[1]; 4 h
  % OD275 present in the dialysis medium: 96%
[1]; 8 h
  % OD275 present in the dialysis medium: 95%
[1]; 16 h
  % OD275 present in the dialysis medium: 96%

## chondroitin
[2]
  absorption of ketorolac in the presence of chondroitin: increases significantly
[3]
  acts as transdermal carrier of diclofenac: acts as an efficient transdermal carrier of diclofenac
[4]
  absorption of diclofenac in the presence of chondroitin: increases significantly
[5]; skin, 1 h after topical application of 50 mg gel
  radioactivity in skin, % of dose applied: about 50 % of dose applied
[5]; urine, 20 h
  radioactivity in urine, % of dose applied: about 25 % of dose applied

## chondroitin sulphate
[6]
  ability to transport diclofenac and ibuprofen in the skin: are not
[3]
  acts as transdermal carrier of diclofenac: not

## heparin
[6]
  ability to transport diclofenac and ibuprofen in the skin: are not

## hyaluronic acid
[6]
  ability to transport diclofenac and ibuprofen in the skin: able to transport diclofenac and ibuprofen in the skin
